Test results from patent US11739385B2, “Discovery of a somatic mutation in MYD88 gene in lymphoplasmacytic lymphoma” (Dana-Farber Cancer Institute, Inc., priority 2011, dated 2023).
Read-outs that look alike come from different tables or passages of the source.

Key:
NF-κB signaling [1] = settings: L265P expressing ABC DLBCL cell lines; cited from earlier work
[2] = system: MYD88 L265P expressing WM cells; assay: Apoptosis analysis by Annexin V and PI staining; assay type: cell-based; settings: BCWM.1 and MWCL-1 WM cells which possess the MYD88 L265P mutation
Method: Western blot analysis was performed using total and phospho-specific antibodies in MYD88 L265P expressing WM cells, BCWM.1 and MCWL-1 following MYD88 knockdown by lentiviral transduction, and/or use of MYD88 or IRAK signal inhibitors. […] Annexin V/PI staining was used to assess cell survival, and synergism assessed with CalcuSyn software.

NF-κB signaling [3] = assay: NF-κB signaling in BCWM.1 and MWCL-1 WM cells; assay type: cell-based; settings: BCWM.1 and MWCL-1 WM cells which possess the MYD88 L265P mutation

O=C(Nc1nc2ccccc2n1CCN1CCOCC1)c1cccc([N+](=O)[O-])c1 [IRAK1/4 inhibitor, N-(2-Morpholinylethyl)-2-(3-nitrobenzoylamido)-benzimidazole]
NF-κB signaling (NF-κB signaling [1]): loss of NF-κB signaling
apoptosis [2]: enhanced apoptosis
NF-κB signaling (NF-κB signaling [3]): loss of NF-κB signaling
